Reference: ChEMBL document CHEMBL5584232, “Hijacking monopolar spindle 1 (MPS1) for various cancer types by small molecular inhibitors: Deep insights from a decade of research and patents” (Eur J Med Chem, 2024)
Each block holds one compound with its values, some of them ahead of it.

How the values were obtained:
[1] = molecular target: Mitogen-activated protein kinase 8 (Homo sapiens, UniProt P45983); assay: Inhibition of JNK1 (unknown origin) using ATF2 as substrate after 1 hr by Lanthascreen TR-FRET assay
Mitogen-activated protein kinase 8, sequence (P45983 whole entry): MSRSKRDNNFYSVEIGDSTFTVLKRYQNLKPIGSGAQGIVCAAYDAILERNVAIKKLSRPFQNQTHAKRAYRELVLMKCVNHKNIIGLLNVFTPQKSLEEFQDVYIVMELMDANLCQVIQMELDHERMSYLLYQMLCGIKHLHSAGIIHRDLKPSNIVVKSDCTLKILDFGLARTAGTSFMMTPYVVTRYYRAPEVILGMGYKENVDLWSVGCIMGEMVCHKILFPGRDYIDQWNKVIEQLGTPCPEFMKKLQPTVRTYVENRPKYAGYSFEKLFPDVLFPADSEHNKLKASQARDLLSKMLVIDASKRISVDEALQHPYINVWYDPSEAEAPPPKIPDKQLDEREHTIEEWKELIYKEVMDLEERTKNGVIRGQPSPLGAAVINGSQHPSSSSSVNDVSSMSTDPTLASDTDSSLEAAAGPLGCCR

[2] = test system: A549; assay: Antiproliferative activity against human A549 cells assessed as reduction in cell growth incubated for 48 hrs by MTT assay; assay type: functional, cell-based; details: A549, 48 h
[3] = Oral bioavailability in rat at 1 mg/kg; assay type: ADME, organism-based; details: in vivo
[4] = Clearance in Sprague-Dawley rat at 1 mg/kg, iv measured after 24 hrs by LC-MS/MS analysis; assay type: ADME, organism-based; details: in vivo
[5] = Clearance in rat at 1 mg/kg, po; assay type: ADME, organism-based; details: in vivo
[6] = molecular target: CYP450 (Homo sapiens, UniProt P04798+P05177+P05181+P08684+P10632+P10635+P11509+P11712+P13584+P20813+P20815+P20853+P24462+P24903+P33260+P33261+P51589+P78329+P98187+Q02928+Q08477+Q16678+Q16696+Q5TCH4+Q6VVX0+Q7Z449+Q8TAV3+Q96SQ9+Q9HB55); assay: Inhibition of CYP450 (unknown origin); assay type: ADME, protein assay
[7] = test system: HCT-116; assay: Antitumor activity against human HCT-116 cells xenografted in athymic nude BALB/c mouse assessed as reduction in tumor growth at 12.5 mg/kg, ip administered every other day and measured every other day for 16 days; assay type: functional; details: HCT-116, 384 h, time 16 day, read-out: TGI
[8] = test system: HCT-116; assay: Growth inhibition of human HCT-116 cells incubated for 48 hrs by SRB assay; assay type: functional
[9] = test system: A549; assay: Growth inhibition of human A549 cells incubated for 48 hrs by SRB assay; assay type: functional
[10] = test system: MDA-MB-468; assay: Growth inhibition of human MDA-MB-468 cells incubated for 48 hrs by SRB assay; assay type: functional
[11] = test system: CAL-51; assay: Antiproliferative activity against human CAL-51 cells assessed as inhibition of cell growth incubated for 72 hrs by MTT assay; assay type: functional, cell-based; details: CAL-51, 72 h
[12] = molecular target: T1, Dual specificity protein kinase TTK (Homo sapiens, UniProt P33981); assay: Inhibition of human recombinant TTK expressed in Escherichia coli Rossetta 2 (DE3) incubated for 1 hr by TR-FRET assay
T1 sequence (P33981 whole entry): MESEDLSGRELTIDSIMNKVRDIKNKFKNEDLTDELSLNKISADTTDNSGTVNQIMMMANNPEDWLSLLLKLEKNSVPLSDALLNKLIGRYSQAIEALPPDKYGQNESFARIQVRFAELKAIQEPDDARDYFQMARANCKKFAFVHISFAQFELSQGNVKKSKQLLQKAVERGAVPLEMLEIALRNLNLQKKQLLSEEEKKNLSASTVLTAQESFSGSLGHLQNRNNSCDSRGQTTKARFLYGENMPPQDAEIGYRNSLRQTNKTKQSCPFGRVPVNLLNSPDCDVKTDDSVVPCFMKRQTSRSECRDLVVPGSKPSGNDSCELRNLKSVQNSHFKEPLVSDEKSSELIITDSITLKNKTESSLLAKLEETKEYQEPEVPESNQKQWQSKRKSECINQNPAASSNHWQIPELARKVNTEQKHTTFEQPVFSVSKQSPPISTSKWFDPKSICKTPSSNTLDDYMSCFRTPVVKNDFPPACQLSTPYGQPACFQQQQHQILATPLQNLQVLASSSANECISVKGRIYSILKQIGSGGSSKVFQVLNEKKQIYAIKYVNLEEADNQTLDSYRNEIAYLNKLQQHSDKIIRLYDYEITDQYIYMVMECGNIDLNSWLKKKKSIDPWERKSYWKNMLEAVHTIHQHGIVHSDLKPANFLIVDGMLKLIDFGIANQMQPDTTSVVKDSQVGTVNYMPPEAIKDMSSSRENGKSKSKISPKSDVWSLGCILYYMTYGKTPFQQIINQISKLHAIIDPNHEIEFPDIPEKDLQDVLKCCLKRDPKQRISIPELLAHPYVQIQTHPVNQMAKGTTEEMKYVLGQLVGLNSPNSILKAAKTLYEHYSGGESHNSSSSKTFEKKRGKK

IC50 [1]: 28 nM
Structure (SMILES): CCOc1ccc2[nH]nc(-c3ccc(NC(C)=O)cc3)c2c1

IC50 [1]: 150 nM
Structure (SMILES): CCOc1ccc2[nH]nc(-c3cccc(NC(C)=O)c3)c2c1

IC50 [2]: 386 nM
Structure (SMILES): CCOc1cc2c(-c3cccc(S(N)(=O)=O)c3)n[nH]c2cc1-c1cn[nH]c1

IC50 [2]: 386 nM
Structure (SMILES): CCOc1cc2c(-c3cccc(S(N)(=O)=O)c3)n[nH]c2cc1-c1cnn(C)c1

IC50 [2]: 386 nM
Structure (SMILES): CCOc1cc2c(-c3ccc(C)c(S(N)(=O)=O)c3)n[nH]c2cc1-c1cnn(C)c1

bioavailability [3]: 17%
Structure (SMILES): Cn1cc(-c2cc3[nH]nc(-c4cccc(S(N)(=O)=O)c4)c3cc2OC2CCCCC2)cn1

clearance [4]: 33 mL/min/kg
Structure (SMILES): Cn1cc(-c2cc3[nH]nc(-c4cccc(S(N)(=O)=O)c4)c3cc2NC2CCCCC2)cn1

CL/F [5]: 33 mL/min/kg
Structure (SMILES): CC(=O)Nc1cccc(-c2n[nH]c3cc(-c4cnn(C)c4)c(NC4CCCCC4)cc23)c1

IC50 [6]: 700 nM
Structure (SMILES): CCc1ccccc1C(C(=O)Nc1ccc2[nH]nc(-c3cccc(S(N)(=O)=O)c3)c2c1)N(C)C (stereo not given)
inhibition in vivo at 12.5 mg/kg [7]: 10%

IC50 [6]: 900 nM
GI50 [8]: 100 nM
GI50 [9]: 100 nM
GI50 [10]: 70 nM
Structure (SMILES): NS(=O)(=O)c1cccc(-c2n[nH]c3ccc(NC(=O)C(c4ccsc4)N4CCCC4)cc23)c1 (stereo not given)
inhibition in vivo at 12.5 mg/kg [7]: 66%

Structure (SMILES): CNC(=O)c1ccc(Nc2nc(OC3CCCC3)c3c(-c4cc[nH]n4)c[nH]c3n2)c(OC)c1
IC50 [11]: 400 nM

Structure (SMILES): COc1cc(C(=O)NC(C)(C)CO)ccc1Nc1nc(OC2CCCC2)c2c(-c3ccc4nc(C)oc4c3)c[nH]c2n1
IC50 [11]: 100 nM

Structure (SMILES): COc1cc(C(=O)NCC(C)(C)O)ccc1Nc1nc(OC2CCCC2)c2c(-c3ccc4nc(C)oc4c3)c[nH]c2n1
IC50 [11]: 60 nM

Structure (SMILES): CNC(=O)c1ccc(Nc2nc(O[C@H]3CCOC3)c3c(-c4ccc5nc(C)oc5c4)c[nH]c3n2)c(OC)c1
IC50 [11]: 18 nM

IC50 [12]: 15 nM
Structure (SMILES): COc1cc(N2CCC(O)CC2)ccc1Nc1nc(Nc2ccccc2S(=O)(=O)C(C)C)c2nc[nH]c2n1
